The target of experiment [1] is T1, AKT1 (Homo sapiens, UniProt P31749). Nature of the experiment: SPR determination of Kd / binding kinetics on AKT1. Set-up: purchased Life Technologies. As for the experimental part: To a solution of AKT1 (25µg, 4.16×10^−10 moles, 1.0 equiv.) in 50mM Na2CO3 in 150mM NaCl, pH 9.0 (200 µl), was added a solution of NHS-LC-LC-Biotin (Thermo Scientific) (9.4 µl, 8.32×10^−10 moles, 2.0 equiv.) in DMSO. The reaction was kept on ice at 0°C with frequent agitation for 2 hours, before the mixture was transferred to a 10 kDa Millipore Microcon filter and diluted with HBS-N (200 µl). The excess biotin was removed by spinning the filter at 12,000 G until the volume on top of the filter had been reduced to 0.25 the original volume. The retentate was washed with an additional 200 µl of HBS-N and spun for a further 15 minutes. The filter was then flipped over and the protein recovered (15 µg, 60%). After filtration, an appropriate volume of 10× HBS-N was added to the sample to increase the HBS-N concentration to a 1× equivalent.
Determination of the binding kinetics of the synbody on AKT1 was performed on a Biacore A-100. The series S sensor chip CM5, amine coupling reagents and HBS-EP were obtained from GE Healthcare. A standard amine immobilization protocol was performed at 25°C using NaHCO3 (10mM in 150mM NaCl, pH 4.5) as the immobilization buffer. Spots 1,2 and 3 on each of the four flow cells of the CM-5 dextran chip were activated by a 10 minute injection of a freshly prepared 1∶1 solution of 40 0mM EDC : 100 mM NHS in water. The NHS-carboxy groups of spot 1 of the dextran surface were treated with a solution of neutravidin (50 µg/ml) in sodium acetate (pH 5.0) for 8 mins at a flow rate of 10 µl/min. Any residual active sites were then quenched by a 5 min pulse of ethylene diamine (1M, pH 8.5). Similarly neutravidin was coupled to spots 2 and 3 via a 12 and 16 min injection cycle respectively, followed by quenching. An additionally 7 min injection of ethylene diamine was then pulsed over spots 1–3 to ensure no activated sites remained. […]
For high-resolution kinetics, biotin-tagged AKT1 was captured in multiple spot densities with Rmax's ranging from 20–100 RUs. […] Association and dissociation were monitored for 3 and 16 min, respectively. […]

Experiment [2] addresses T1, AKT1. Description: IP of AKT1 spiked into A549 cell lysate, Western Blot. Set-up: purchased Life Technologies. The class given is binding. As to conditions: 200 ng AKT1 (33.2 nM). As for the experimental part: As a preliminary test of specificity, 200 ng of AKT1 (33.2 nM) was spiked into increasing amounts of cell lysate prepared from un-stimulated A549 lung epithelial cells and streptavidin beads coated with 25 pmols of synbody (7.6∶1 synbody-to-AKT1 ratio) were used to pull down AKT1 using the same IP procedure and Western Blot protocol as before.
For all IP experiments, either a 1 µM or 250 nM solution of biotin-conjugated synbody was captured on 20 µL of streptavidin coated paramagnetic M-280 Dynabeads (Life Technologies) according to the manufacturers protocol. Synbody coated beads were washed five times with 1 mL of 100 mM phosphate buffered saline containing 0.05% Tween-20 (PBST) and incubated overnight at 4°C with shaking in the desired amount of target protein in A549 cell lysate. For Kd determination experiments, serial dilutions of AKT1 or ABL1 were prepared in binding buffer. After binding, beads were washed five times with 1 mL of PBST and heated at 70°C in 20 µL of 1× LDS loading buffer (Invitrogen) for 10 minutes. The samples were analyzed by SDS-PAGE gel with Western Blot detection using the appropriate antibody and imaged on a GE Healthcare Typhoon Trio.

Like-named read-outs stand apart in the source and are kept apart here. Bridge positions count the residues as written; N and C are the ends. Ends that are not written are not given here. I, II: the chains in the order shown. * marks the point of attachment. StBu = CC(C)(C)S*

T1 sequence (P31749 whole entry): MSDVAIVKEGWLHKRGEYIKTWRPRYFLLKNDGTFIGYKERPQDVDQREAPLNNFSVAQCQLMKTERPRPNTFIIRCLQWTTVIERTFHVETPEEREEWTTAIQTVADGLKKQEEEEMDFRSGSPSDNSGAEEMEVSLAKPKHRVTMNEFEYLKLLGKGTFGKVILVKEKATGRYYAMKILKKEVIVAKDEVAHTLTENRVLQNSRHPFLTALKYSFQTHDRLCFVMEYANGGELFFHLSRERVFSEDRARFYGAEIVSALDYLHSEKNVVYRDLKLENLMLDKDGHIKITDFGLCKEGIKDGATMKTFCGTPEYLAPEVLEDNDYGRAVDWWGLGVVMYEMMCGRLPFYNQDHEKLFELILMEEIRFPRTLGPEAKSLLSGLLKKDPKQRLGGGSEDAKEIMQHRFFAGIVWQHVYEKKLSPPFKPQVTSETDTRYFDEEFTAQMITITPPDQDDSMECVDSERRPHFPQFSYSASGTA

In the case of “I: AHKVVPQRQIRHAYNRYGSGKC(StBu)-NH2 / II: FRGWAHIFFGPHVIYRGGSG (amide I:21-II:C) [synbody]”, in experiment [1] (Biacore A-100, biotin-labeled AKT1 on neutravidin, synbody 25 nM to 0.78 nM, 1:1 binding model, read-out: association rate, ka), the kon worked out at 200000 M⁻¹ s⁻¹. Also, the koff in experiment [1] (Biacore A-100, biotin-labeled AKT1 on neutravidin, synbody 25 nM to 0.78 nM, 1:1 binding model, read-out: dissociation rate, kd) was 0.0003 s⁻¹; in experiment [1] (Figure 3A, 12.5 and 6.25 nM synbody, Biacore A-100, 1:1 binding model, read-out: koff), 0.000295 s⁻¹. Besides, the “excess cell extract in the presence of which AKT1 is precipitated” value in experiment [2] (25 pmols synbody (7.6:1), A549 lysate) is recorded as 2,500 fold excess. In experiment [2] (25 pmols synbody (7.6:1 synbody-to-AKT1), increasing A549 lysate), the “precipitation of AKT1 from A549 lysate” value is “successfully pulled AKT1 out of the cell lysate in the presence of an increasing concentration of A549 lysate with little reduction in AKT1 signal intensity”.

The record behind these values is article PMC2873402, “Discovery of High-Affinity Protein Binding Ligands – Backwards” (PLoS ONE, 2010).
